Earlier results in patent US20190090531A1, “TOBACCO FILLING FOR NON-COMBUSTION-TYPE HEATING SMOKING ARTICLE” (JAPAN TOBACCO INC., priority 2016, published 2019).
Like-named read-outs stand apart in the source and are kept apart here.

[1] = Table 1, in water at normal temperature (25° C.)

Row | SMILES | Acid dissociation constant pKa1 [1] | Acid dissociation constant pKa1 (Table 2, in water at 25° C.)
1 | CCCCCCCCCCCCCCCCCCCCCCCC(=O)O [Lignoceric acid] | ≈5.00 | ≈5.00
2 | CCCCCCCCCCCCCCCCCCC(=O)O [Nonadecanoic acid] | ≈5.00 | ≈5.00
3 | CCCCCCCCCCCC(=O)O [Lauric acid] | 5.20 | 
4 | O=C1O[C@H]([C@H](O)CO)C(O)=C1O [Isoascorbic acid] | 4.13 | 4.13
5 | CCCCCCCCCCCCCCCCCCCCC(=O)O [Heneicosanoic acid] | ≈5.00 | 
6 | CCCCCCCCCC(=O)O [Decanoic acid] | 4.90 | 
7 | CCCCCCCCCCCCCC(=O)O [Myristic acid] | ≈5.00 | 
8 | CC/C=C\C/C=C\C/C=C\CCCCCCCC(=O)O [Linolenic acid] | ≈5.00 | 
9 | CC(=O)CCC(=O)O [Levulinic acid] | 4.44 | 

Second part, the molecule after the results:

Row | Acid dissociation constant pKa1 [1] | Acid dissociation constant pKa1 (Table 2, in water at 25° C.) | SMILES
10 | ≈5.00 |  | CCCCCCCCCCCCCCCCCC(=O)O [Stearic acid]
11 | ≈5.00 |  | CCCCCCCCCCCCCCCCCCCCCCCCCCCC(=O)O [Octacosanoic acid]
12 | ≈5.00 |  | CCCCCCCCCCCCCCCC(=O)O [Palmitic acid]
13 | 4.76 |  | C/C=C/C=C/C(=O)O [Sorbic acid]
14 | 2.50 |  | CC(=O)C(=O)O [Pyruvic acid]
